Test results from US12692290B2, “Modulators of tight junction permeability” (The University of Bath, priority 2020, dated 2026).
Values joined by “and” are separate entries in the source; they are usually repeats but may differ in a detail not shown here. Identical values can stand only once. Like-named read-outs stand apart in the source and are kept apart here. Where a SMILES comes first, the peptide text is derived from it. [ ]: non-standard residue; d: D form.

B1: MYPT11-299: amino acids 1-299 of MYPT1 (protein, UniProt O14974 1-299, looked up, fragment)
chain: MKMADAKQKRNEQLKRWIGSETDLEPPVVKRQKTKVKFDDGAVFLAACSSGDTDEVLKLLHRGADINYANVDGLTALHQACIDDNVDMVKFLVENGANINQPDNEGWIPLHAAASCGYLDIAEFLIGQGAHVGAVNSEGDTPLDIAEEEAMEELLQNEVNRQGVDIEAARKEEERIMLRDARQWLNSGHINDVRHAKSGGTALHVAAAKGYTEVLKLLIQAGYDVNIKDYDGWTPLHAAAHWGKEEACRILVDNLCDMEMVNKVGQTAFDVADEDILGYLEELQKKQNLLHSEKRDKKS

Tests used:
occludin = experiment: Western blot for occludin in lysates of Caco-2 monolayers; format: cell-based, human; conditions: Caco-2 monolayers treated for 90 min
Procedure: (§1) Lysates of Caco-2 monolayers prepared using 200 μL RIPA buffer along with 10 μL protease and phosphatase inhibitors per well were placed in 1.5 mL Eppendorf tubes and centrifuged at 4000×g for 10 min with supernatants being removed and stored at −80° C. until separation using a 12% SDS-PAGE gel. Protein samples were mixed 1:1 with loading buffer and denatured by heating at 95° C. for 5 min with 20 μL being loaded for analysis. Separated proteins were transferred onto a nitrocellulose membrane at 30 V for 75 min. Membranes were blocked with 5% bovine serum albumin in TBS-T for 2 h prior to an overnight incubation at 4° C. with primary antibodies diluted in TBS-T. Membranes were thrice washed with TBS-T and then incubated with fluorescent-tagged secondary antibodies at room temperature for 2 h. Membranes were thrice washed with TBS-T and analysed using a Licor imaging system.

Caco-2 monolayers [1] = experiment: TEER of Caco-2 monolayers after apical PIP peptide; format: cell-based, human; conditions: for TEER % of initial baseline at time of washout: 5 mM peptide for 180 min, Caco-2; for Effect on TEER compared to control (FIG. 1): 5 mM peptide, Caco-2 monolayer, one-way ANOVA with bonferroni post-test; for TEER reduced to % of baseline: 5 mM applied to apical surface of Caco-2 monolayers
Procedure: An immortalized human intestinal epithelial cell line (Caco-2) was maintained in DMEM/F12 (Gibco, Paisley, UK) supplemented with 10% FBS, 2 mM L-glutamine (Gibco) 100 U/mL penicillin and 100 μg/mL streptomycin (Gibco). Caco-2 cells were seeded at a density of 7×10^4/well on Transwell™ (Corning, NY) polyester membrane filters (12 mm diameter, 0.4 μm pore size). Feeding with fresh media (Life Technologies, Paisley, UK) was carried out every second day. Caco-2 monolayers with trans-epithelial electrical resistance (TEER) >350 Ω·cm^2 were used for these studies; such TEER values as measured using fixed paddle electrodes and a voltohmeter (World Precision Instruments, UK), were typically achieved between days 15-18 following seeding on Transwell™ filters.
Apical to basal flux of 10 mg/mL 4 kDa fluorescent dextran (Sigma) was performed to assess PIP peptide impact on paracellular permeability. Apical (200 μL) and basal (500 μL) compartment media were replaced with fresh HBSS and allowed to equilibrate for 30 min when TEER measurements were obtained to ensure monolayer integrity. After apical application of the fluorescent dextra the basal compartment volume was collected at set times (typically 0, 15, 30 60, 90, 120 and 180 min) and replaced with fresh HBSS each time. Apical and basal compartment fluorescence was determined using a Fluorostar Omega microplate reader (BMG Labtech, Ortenburg, Germany). After 3 h, the apical compartment fluorescent dextran/peptide solution was removed and replaced with PBS and TEER values were recorded for a further 30 min to monitor monolayer recovery. TEER values were calculated by subtracting blank filter readings and normalized as a percentage of the initial TEER value for that monolayer.

Caco-2 monolayers [2] = experiment: TEER of Caco-2 monolayers after apical PIP peptide; format: cell-based, human; conditions: 5 mM peptide for 180 min, then washout, 90 min recovery
MYPT1 binding to PP1 = experiment: MYPT1/PP1 binding assay in presence of increasing PIP peptide concentrations; conditions: read-out: KI for inhibition of MYPT1 binding to PP1
Procedure: (§2) His-tagged PP1 diluted in PBS-T was incubated in nickel coated wells for 1 hour and washed three times with PBS-T. Wells were incubated with increasing concentrations of biotinylated PIP peptides or amino acids 1-299 of MYPT1. Wells were washed again three times with PBS-T and incubated with streptavidin conjugated to Alexa Fluor 488 for 1 hour. Wells were washed as previously and the plate was read for fluorescence (Ex:480 nm, Em: 510 nm).
The binding assay with MYPT1 was repeated in the presence of increasing concentrations of PIP peptides to determine the competition between MYPT1 and the peptides.

PP1 = PP1 (Homo sapiens, UniProt P62140); experiment: Binding assay of biotinylated peptides or MYPT1 1-299 to immobilised His-tagged PP1
Sequence of PP1 (P62140 whole entry): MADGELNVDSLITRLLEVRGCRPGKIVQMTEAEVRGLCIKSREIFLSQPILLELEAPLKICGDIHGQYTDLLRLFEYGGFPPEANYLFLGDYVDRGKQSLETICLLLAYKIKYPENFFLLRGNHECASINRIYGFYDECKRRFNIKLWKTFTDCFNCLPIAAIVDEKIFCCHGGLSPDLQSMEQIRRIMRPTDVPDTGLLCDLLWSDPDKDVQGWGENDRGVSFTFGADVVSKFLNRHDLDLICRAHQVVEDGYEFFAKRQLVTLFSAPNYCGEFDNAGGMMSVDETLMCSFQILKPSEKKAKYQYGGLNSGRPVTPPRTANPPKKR
Procedure: as §2

[3] = test system: myosin light chain (MLC) phosphorylation; experiment: Western blot, ratio of pMLC to total MLC in Caco-2 lysates; format: cell-based, human; conditions: 5 mM peptide, Caco-2 monolayers
Procedure: as §1

Row | Molecule | occludin level % of control (occludin) [%] | TEER % of initial baseline at time of washout (Caco-2 monolayers [1]) | Effect on TEER compared to control (FIG. 1) (Caco-2 monolayers [1]) | TEER % of baseline 90 min after washout (Caco-2 monolayers [2]) [%] | Ki (MYPT1 binding to PP1) [µM] | Kd (PP1) [µM] | ratio of pMLC to MLC compared to untreated control [3] | TEER reduced to % of baseline (Caco-2 monolayers [1]) [%] | Kd (PP1; derived from binding curves, read-out: KD for binding to PP1) [µM] | Kd (PP1; same assay, read-out: KD for binding to PP1) [µM]
1 | CC(C)[C@@H](NC(=O)[C@@H](CCCCN)NC(=O)[C@@H](Cc1ccccc1)NC(=O)[C@@H](CCCNC(=N)N)NC(=O)[C@H](N)CCCNC(=N)N)C(=O)N[C@H](CCCCN)C(=O)N[C@@H](C(=O)N[C@H](CCCCN)C(=O)N[C@H](CCCCN)C(=O)N[C@H](CCCNC(=N)N)C(=O)N[C@H](CCCCN)C(N)=O)[C@H](C)O [PIP250, H-rrfkvktkkrk-NH2, reference compound] (H-[dR][dR][dF][dK][dV][dK][dT][dK][dK][dR][dK]-NH2) | 65.8 | ~ 50% and 49% | significantly different from control | 54 | 155 | 610 | significantly increased | – | – | –
2 | CC(C)[C@@H](NC(=O)[C@@H](CCCCN)NC(=O)[C@@H](C)NC(=O)[C@@H](CCCNC(=N)N)NC(=O)[C@H](N)CCCNC(=N)N)C(=O)N[C@H](CCCCN)C(=O)N[C@@H](C(=O)N[C@H](CCCCN)C(=O)N[C@H](CCCCN)C(=O)N[C@H](CCCNC(=N)N)C(=O)N[C@H](CCCCN)C(N)=O)[C@H](C)O [PIP251, H-rrakvktkkrk-NH2] (H-[dR][dR][dA][dK][dV][dK][dT][dK][dK][dR][dK]-NH2) | 84.1 | 58% | significantly different from control | 94 | – | 1280 | increased the ratio of pMLC to MLC, however to a lesser extent than the parent PIP250 | 62.7 | – | –
3 | C[C@H](O)[C@@H](NC(=O)[C@@H](CCCCN)NC(=O)[C@@H](C)NC(=O)[C@@H](CCCCN)NC(=O)[C@@H](Cc1ccccc1)NC(=O)[C@@H](CCCNC(=N)N)NC(=O)[C@H](N)CCCNC(=N)N)C(=O)N[C@H](CCCCN)C(=O)N[C@H](CCCCN)C(=O)N[C@H](CCCNC(=N)N)C(=O)N[C@H](CCCCN)C(N)=O [PIP252, H-rrfkaktkkrk-NH2] (H-[dR][dR][dF][dK][dA][dK][dT][dK][dK][dR][dK]-NH2) | 61.4 | 55% | significantly different from control | 70 | – | 724 | increased the ratio of pMLC to MLC, however to a lesser extent than the parent PIP250 | 66 | – | –
4 | CC(C)[C@@H](NC(=O)[C@@H](CCCCN)NC(=O)[C@@H](CC(=O)O)NC(=O)[C@@H](CCCNC(=N)N)NC(=O)[C@H](N)CCCNC(=N)N)C(=O)N[C@H](CCCCN)C(=O)N[C@@H](C(=O)N[C@H](CCCCN)C(=O)N[C@H](CCCCN)C(=O)N[C@H](CCCNC(=N)N)C(=O)N[C@H](CCCCN)C(N)=O)[C@H](C)O [PIP253, H-rrdkvktkkrk-NH2] (H-[dR][dR][dD][dK][dV][dK][dT][dK][dK][dR][dK]-NH2) | – | – | not significant | – | – | – | did not significantly increase | 88 | – | –
5 | C[C@H](O)[C@@H](NC(=O)[C@@H](CCCCN)NC(=O)[C@@H](CC(=O)O)NC(=O)[C@@H](CCCCN)NC(=O)[C@@H](Cc1ccccc1)NC(=O)[C@@H](CCCNC(=N)N)NC(=O)[C@H](N)CCCNC(=N)N)C(=O)N[C@H](CCCCN)C(=O)N[C@H](CCCCN)C(=O)N[C@H](CCCNC(=N)N)C(=O)N[C@H](CCCCN)C(N)=O [PIP254, H-rrfkdktkkrk-NH2] (H-[dR][dR][dF][dK][dD][dK][dT][dK][dK][dR][dK]-NH2) | – | – | not significant | – | – | – | did not significantly increase | 85 | – | –
6 | B1 | – | – | – | – | – | – | – | – | 0.05 | 0.049
